# Assays:
# MRSA = assay: Phase 2 cSSSI study: cure rate by baseline pathogen; format: in vivo, Staphylococcus aureus; conditions: MRSA at baseline, TOC
# Procedure: (§1) The primary efficacy endpoint was the clinical response in the CE population at TOC, which occurred 20 to 28 days after study enrollment on Day 1. Clinical response was determined by the investigator as part of the end-of-therapy, TOC, and late follow-up procedures by assessing signs and symptoms including fever, pain, tenderness, erythema, induration, edema, purulent drainage, eschar, and devitalized tissue. A clinical response of cure, improvement, failure, or indeterminate was assigned at end-of-therapy and TOC by the investigator based on clinical signs and symptoms. At late follow-up, the investigator could assign the clinical response of relapse in addition to cure, improvement, or indeterminate. Only patients with a clinical response of cure or improvement at TOC were assessed for clinical response at late follow-up.
# (§2) Cure was defined as resolution of purulent drainage, pain, edema, fever, erythema, tenderness, and induration. Serous drainage or aspirate and/or granulation tissue could be present. Improvement was defined as resolution of purulent drainage and, in the case of cellulitis, cessation of fever and pain. Residual erythema, edema, pain (in the case of wound or abscess), tenderness, and/or induration could be present as could serous drainage, granulation tissue, eschar, and/or devitalized tissue. Failure included any of the following: presence of purulent drainage (or aspirate) and/or fever; the unanticipated need for abscess drainage or removal of sutures (for treatment of infection)>48 hours after initiation of study therapy; or treatment with nonstudy systemic antibiotic having activity against gram-positive pathogen(s) for the primary infection site or use of topical antibiotics at the site of primary infection 24 hours or more after initiation of study medication therapy.
# (§3) Blood and infection site cultures were obtained within three days of enrollment (often done at the time of enrollment). End-of-therapy, TOC, and late follow-up (or at early relapse) cultures were obtained from the infection site if clinically indicated. […] Specimens were cultured and pathogens were identified at each investigative site's certified laboratory. All isolated gram-positive pathogen(s) that were obtained from the infection site at baseline/randomization and up to and including the TOC time point were subcultured and sent to a central laboratory (Covance Clinical Laboratories, Indianapolis, Ind.) for confirmatory identification and susceptibility testing. In cases of discrepancy between the local and the central laboratory, central laboratory results were used.
# MSSA = assay: as above; format: in vivo, Staphylococcus aureus; conditions: MSSA at baseline
# Procedure: as §1, §2, §3
# MSSA or MRSA strains = assay: Neutropenic-mouse thigh infection model, MSSA or MRSA strains, 72 h post-infection; format: in vivo, Staphylococcus aureus; conditions: independently of their MIC
# Procedure: Methods: Thigh infection was established for 14 clinical SA isolates (3 MSSA and 11 MRSA; MICs 0.0015 to 2 μg/mL) in neutropenic CD-1 mice (n=3/group) with 5×10^5 colony forming units (CFU) of cells. Single intravenous doses of ORI (0.5 to 40 mg/kg) were tested against one MSSA and one MRSA strain. […] Both thighs were harvested and CFU counts were evaluated after 24 h (single doses) or 72 h (HEQ doses) treatment.
# In vivo studies: All studies were performed in accordance with protocols that were approved by the Institutional Animal Care and Use Committee. Thigh infection was established for 14 clinical S. aureus isolates in neutropenic CD-1 mice (19-21 g, n=3/group) with 5×10^5 colony forming units (CFU) of cells in both thighs. In the single dose-response study, the number of bacteria/thigh was monitored 24 h post-infection (PI). In the human equivalent (HEQ) dose-ranging study, the bacterial titer was determined in mouse thighs at 2, 4, 8, 12, 24, 48 and 72 h PI. Thighs were serially diluted and plated on Baird-Parker agar plates to determine the bacterial titer. The limit of detection was 1.69 Log10 CFU/thigh. Bacterial titer decreases were calculated (compared to starting inoculum) in thighs at 72 h PI for each HEQ dose regimen of ORI.
# Antibiotherapy: 1) In the single dose response study, mice were treated intravenously (IV) with ORI at doses ranging from 0.4 to 40 mg/kg at lh PI. […]
# [1] = tested on: S. aureus (MSSA, MRSA, and VRSA); conditions: within 15 minutes to 2 hours against MSSA, McKay et al. 2009; cited from earlier work
smiles,measurement,setting,value
"CN[C@H](CC(C)C)C(=O)N[C@H]1C(=O)N[C@@H](CC(N)=O)C(=O)N[C@H]2C(=O)N[C@H]3C(=O)N[C@H](C(=O)N[C@H](C(=O)O)c4cc(O)cc(O)c4-c4cc3ccc4O)[C@H](O[C@H]3C[C@](C)(N)[C@@H](O)[C@H](C)O3)c3ccc(c(Cl)c3)Oc3cc2cc(c3O[C@@H]2O[C@H](CO)[C@@H](O)[C@H](O)[C@H]2O[C@H]2C[C@](C)(NCc3ccc(-c4ccc(Cl)cc4)cc3)[C@@H](O)[C@H](C)O2)Oc2ccc(cc2Cl)[C@H]1O [Oritavancin, N-(4-(4-chlorophenyl)benzyl)A82846B]",% of patients cured (cure and improvement),MRSA; 200 mg daily dose,78.3%
same,% of patients cured (cure and improvement),MRSA; 800 mg infrequent dose,87.0%
same,% of patients cured (cure and improvement),MRSA; 1200 mg single dose,73.0%
same,% of patients cured (cure and improvement),MSSA; 200 mg daily dose,56.5%
same,% of patients cured (cure and improvement),MSSA; 800 mg infrequent dose,68.8%
same,% of patients cured (cure and improvement),MSSA; 1200 mg single dose,90.9%
same,Efficacy against MSSA or MRSA strains,MSSA or MRSA strains,active against all tested strains
same,"Bactericidal activity, log reduction",[1],≥ 3 log

# — patent US8420592B2, “Methods of treatment using single doses of oritavancin” (The Medicines Company, priority 2008, dated 2013)
